Test results reported in article PMC10746543, “Design principles for cyclin K molecular glue degraders” (Nature Chemical Biology, 2023).
Values joined by “and” are separate entries in the source; they are usually repeats but may differ in a detail not shown here. Identical values can stand only once. Like-named read-outs stand apart in the source and are kept apart here. Values belong to the compound of their own block, whether it stands above or below them.

Legend:
[1] = biological target: T1, CDK12–cyclin K and DDB1 (Homo sapiens, UniProt Q16531+Q9NYV4, K965R); test: TR-FRET ternary complex formation assay (compound titration); format: binding; conditions: for fold lower affinity than DS11: TR-FRET complex formation; for TR-FRET signal at compound concentration: replicate titrations
T1 construct: His6–CDK12 (a.a. 713–1,052); full-length or beta-propeller B domain deletion (ΔBPB: a.a. 396–705 deleted) constructs of His6–DDB1ΔBPB, StrepII–Avi–DDB1, or His6–Spy–DDB1; made in house; host or cells: Trichoplusia ni High Five insect cells (baculovirus)
How it was run: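 Delayed (70 μs) time-resolved read; FRET computed as 520 nm over 490 nm emission.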

[2] = system: cyclin K–eGFP degradation reporter; test: Cyclin K reporter stability analysis (dual-color cyclin K–eGFP reporter); format: cell-based, human; conditions: Supplementary Table 2; HEK293T cycK-eGFP reporter, 5 h; read-out: Cellular assays DC50
Experimental: HEK293T–Cas9 cells expressing the cyclin K–eGFP degradation reporter were resuspended at 1 × 10^6 ml^−1 and 50 µl of cell suspension was seeded in non-cell-culture-treated 384-well plates. Shortly after, cells were treated with drug or DMSO for 5 h. […] The fluorescent signal was quantified by flow cytometry (LSRFortessa flow cytometer, BD Biosciences). Using FlowJo (flow cytometry analysis software, BD Biosciences), the geometric mean of the eGFP and mCherry fluorescent signal for round and mCherry-positive cells was calculated. The ratio of eGFP to mCherry was normalized to the average of three DMSO-treated controls.

[3] = system: HEK293T cells; test: Drug sensitivity assay (CellTiter-Glo viability) with or without MLN4924 pretreatment; format: cell-based, human; conditions: for EC50: Homo sapiens, HEK-293T; for Toxicity rescue: MLN4924-mediated cytotoxicity rescue, 10 µM used where n.d.
How it was run: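 Viability of HEK293T–Cas9 cells was compared after 3-day drug treatment with or without 100 nM MLN4924 pretreatment (2 h, versus DMSO). Values are CellTiter-Glo signals relative to DMSO controls.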

[4] = Supplementary Table 2, read-out: TR-FRET EC50 TR-FRET
[5] = compound concentration 79.2001 nM
[6] = compound concentration 158.4 nM
[7] = compound concentration 309.6 nM
[8] = compound concentration 626.401 nM
[9] = compound concentration 1252.8 nM
[10] = compound concentration 9936.01 nM
[11] = compound concentration 20016 nM
[12] = Supplementary Table 2, HEK293T viability, 72 h, compound alone, read-out: Cellular assays EC50

T1 sequence (Q9NYV4 713-1052 K965R): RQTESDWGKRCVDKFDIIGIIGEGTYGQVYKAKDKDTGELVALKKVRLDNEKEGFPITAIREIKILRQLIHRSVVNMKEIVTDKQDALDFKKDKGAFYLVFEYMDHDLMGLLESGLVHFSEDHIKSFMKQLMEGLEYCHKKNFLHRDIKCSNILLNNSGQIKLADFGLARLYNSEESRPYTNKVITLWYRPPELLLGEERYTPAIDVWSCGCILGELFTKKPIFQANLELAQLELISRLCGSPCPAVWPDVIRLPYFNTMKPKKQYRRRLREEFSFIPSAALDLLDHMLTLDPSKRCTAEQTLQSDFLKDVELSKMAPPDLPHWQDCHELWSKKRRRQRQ
T1 sequence (O75909 1-267 partner): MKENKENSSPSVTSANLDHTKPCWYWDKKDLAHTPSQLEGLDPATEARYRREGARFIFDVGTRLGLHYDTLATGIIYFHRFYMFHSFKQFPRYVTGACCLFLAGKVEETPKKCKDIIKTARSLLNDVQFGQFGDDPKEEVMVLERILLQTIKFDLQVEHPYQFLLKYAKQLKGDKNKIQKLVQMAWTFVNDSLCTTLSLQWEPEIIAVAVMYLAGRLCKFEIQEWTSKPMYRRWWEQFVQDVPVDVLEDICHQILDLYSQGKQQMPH
T1 sequence (Q16531 whole entry): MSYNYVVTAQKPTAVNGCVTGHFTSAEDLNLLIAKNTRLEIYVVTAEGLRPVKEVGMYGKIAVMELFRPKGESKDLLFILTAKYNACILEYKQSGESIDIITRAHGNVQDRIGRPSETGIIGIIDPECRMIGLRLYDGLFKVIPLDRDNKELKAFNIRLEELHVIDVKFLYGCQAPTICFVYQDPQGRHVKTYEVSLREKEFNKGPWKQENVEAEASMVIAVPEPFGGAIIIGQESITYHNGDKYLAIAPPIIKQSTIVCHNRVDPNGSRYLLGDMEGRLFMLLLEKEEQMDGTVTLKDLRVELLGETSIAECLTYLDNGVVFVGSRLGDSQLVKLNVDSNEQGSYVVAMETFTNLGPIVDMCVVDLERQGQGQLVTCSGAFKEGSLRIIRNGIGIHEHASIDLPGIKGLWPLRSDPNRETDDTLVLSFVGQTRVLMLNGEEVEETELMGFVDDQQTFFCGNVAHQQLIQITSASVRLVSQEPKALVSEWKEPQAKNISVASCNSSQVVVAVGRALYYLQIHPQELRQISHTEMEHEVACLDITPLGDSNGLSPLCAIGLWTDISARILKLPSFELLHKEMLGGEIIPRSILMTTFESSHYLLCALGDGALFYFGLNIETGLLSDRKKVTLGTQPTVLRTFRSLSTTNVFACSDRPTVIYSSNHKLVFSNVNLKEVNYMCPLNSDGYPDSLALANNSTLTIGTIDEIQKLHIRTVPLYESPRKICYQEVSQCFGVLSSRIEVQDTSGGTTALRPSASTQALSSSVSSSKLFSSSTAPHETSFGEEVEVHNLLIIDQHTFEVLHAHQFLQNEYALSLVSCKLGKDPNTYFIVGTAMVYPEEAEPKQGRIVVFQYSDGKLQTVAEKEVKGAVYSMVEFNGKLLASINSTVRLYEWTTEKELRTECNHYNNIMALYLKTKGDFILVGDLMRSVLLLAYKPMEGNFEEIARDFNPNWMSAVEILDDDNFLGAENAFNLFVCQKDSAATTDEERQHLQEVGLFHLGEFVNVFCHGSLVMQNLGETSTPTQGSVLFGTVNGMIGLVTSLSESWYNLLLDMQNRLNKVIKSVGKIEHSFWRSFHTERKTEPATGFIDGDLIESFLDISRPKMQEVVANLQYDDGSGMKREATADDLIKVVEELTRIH

EC50 [1, 4]: 0.252 µM
TR-FRET signal ([1]; compound concentration 4.68 nM): 0.1326 and 0.1303
TR-FRET signal at compound concentration 4.68 nM ([1]; compound concentration 4.68 nM, raw replicate titration data): 0.1326 and 0.1303
TR-FRET signal ([1]; compound concentration 21.6 nM): 0.1333 and 0.1406
TR-FRET signal at compound concentration 21.6 nM ([1]; compound concentration 21.6 nM, raw replicate titration data): 0.1333 and 0.1406
TR-FRET signal ([1]; compound concentration 36 nM): 0.1624 and 0.1682
TR-FRET signal at compound concentration 36 nM ([1]; compound concentration 36 nM, raw replicate titration data): 0.1624 and 0.1682
TR-FRET signal [1, 5]: 0.2054 and 0.2174
TR-FRET signal at compound concentration 79.2001 nM ([1]; compound concentration 79.2001 nM, raw replicate titration data): 0.2054 and 0.2174
TR-FRET signal [1, 6]: 0.3007
TR-FRET signal at compound concentration 158.4 nM ([1]; compound concentration 158.4 nM, raw replicate titration data): 0.3007
TR-FRET signal [1, 7]: 0.4286 and 0.4588
TR-FRET signal at compound concentration 309.6 nM ([1]; compound concentration 309.6 nM, raw replicate titration data): 0.4286 and 0.4588
TR-FRET signal [1, 8]: 0.5953 and 0.5848
TR-FRET signal at compound concentration 626.401 nM ([1]; compound concentration 626.401 nM, raw replicate titration data): 0.5953 and 0.5848
TR-FRET signal [1, 9]: 0.6865 and 0.6689
TR-FRET signal at compound concentration 1252.8 nM ([1]; compound concentration 1252.8 nM, raw replicate titration data): 0.6865 and 0.6689
TR-FRET signal ([1]; compound concentration 2448 nM): 0.7142 and 0.68
TR-FRET signal at compound concentration 2448 nM ([1]; compound concentration 2448 nM, raw replicate titration data): 0.7142 and 0.68
TR-FRET signal [1, 10]: 0.6777 and 0.6603
TR-FRET signal at compound concentration 9936.01 nM ([1]; compound concentration 9936.01 nM, raw replicate titration data): 0.6777 and 0.6603
TR-FRET signal [1, 11]: 0.6177 and 0.617
TR-FRET signal at compound concentration 20016 nM ([1]; compound concentration 20016 nM, raw replicate titration data): 0.6177 and 0.617
DC50 [2]: > 10 µM
Compound: Cn1cc(-n2cnc3c(NCc4nc5cc(O)ccc5[nH]4)nc(N4CCOCC4)nc32)cn1 [DS54]
EC50 ([3]; Supplementary Fig. 5, HEK293T, CellTiter Glo, 72h, pre-treatment with 100 nM MLN4924, read-out: Viability EC50, with MLN4924): 3.29 µM
EC50 ([3]; Supplementary Fig. 5, HEK293T, CellTiter Glo, 72h, read-out: Viability EC50, no MLN4924): 0.073 µM
EC50 [3, 12]: > 10 µM
Toxicity rescue ([3]; Supplementary Table 2): 0%

EC50 [1, 4]: 0.595 µM
fold lower affinity than DS11 [1]: 5-10 fold
TR-FRET signal at compound concentration ([1]; compound concentration 4.68 nM): 0.1344 and 0.1608
TR-FRET signal at compound concentration ([1]; compound concentration 21.6 nM): 0.1474 and 0.1725
TR-FRET signal at compound concentration ([1]; compound concentration 36 nM): 0.1731 and 0.2063
TR-FRET signal at compound concentration [1, 5]: 0.1998 and 0.2552
TR-FRET signal at compound concentration [1, 6]: 0.2546 and 0.3178
TR-FRET signal at compound concentration [1, 7]: 0.334 and 0.4076
TR-FRET signal at compound concentration [1, 8]: 0.4243 and 0.5117
TR-FRET signal at compound concentration [1, 9]: 0.5049 and 0.5958
TR-FRET signal at compound concentration ([1]; compound concentration 2448 nM): 0.6152 and 0.6779
TR-FRET signal at compound concentration [1, 10]: 0.7339 and 0.7716
TR-FRET signal at compound concentration [1, 11]: 0.6991 and 0.7616
EC50 ([1]; in vitro complex formation, 50 nM CDK12–cyclin K, 100 nM DDB1, text and figures, read-out: TR-FRET EC50): 0.595 ± 0.091 µM
DC50 [2]: > 10 µM
Compound: CC[C@H](CO)Nc1nc(NCCCCCCc2ccccc2)c2ncn(C(C)C)c2n1 [DS10]
EC50 [3, 12]: > 10 µM
Toxicity rescue ([3]; Supplementary Table 2): 0%

EC50 [1, 4]: 0.676 µM
fold lower affinity than DS11 [1]: ten-fold
TR-FRET signal, individual replicate ([1]; compound concentration 4.68 nM): 0.2147 and 0.2508
TR-FRET signal, individual replicate ([1]; compound concentration 21.6 nM): 0.2391 and 0.2736
TR-FRET signal, individual replicate ([1]; compound concentration 36 nM): 0.287 and 0.3299
TR-FRET signal, individual replicate [1, 5]: 0.3607 and 0.4271
TR-FRET signal, individual replicate [1, 6]: 0.4885 and 0.5801
TR-FRET signal, individual replicate [1, 7]: 0.7088 and 0.8235
TR-FRET signal, individual replicate [1, 8]: 1.016 and 1.206
TR-FRET signal, individual replicate [1, 9]: 1.37 and 1.584
TR-FRET signal, individual replicate ([1]; compound concentration 2448 nM): 1.698 and 1.9826
TR-FRET signal, individual replicate [1, 10]: 1.942 and 2.207
TR-FRET signal, individual replicate [1, 11]: 1.955 and 2.01
EC50 ([1]; sheet MOESM7, read-out: log TR-FRET EC50 (converted)): 0.676 µM
DC50 [2]: > 10 µM
Compound: CC[C@H](CO)Nc1nc(NCCCC2CCCCC2)c2ncn(C(C)C)c2n1 [DS32]
EC50 [3, 12]: > 10 µM
Toxicity rescue ([3]; Supplementary Table 2): 0%
